Assays:
green foxtail [1] = test: Test Example 5: herbicidal effect by foliage application, plastic box (Table 20, symbol G); type: in vivo, green foxtail (Setaria viridis); details: foliage application, AAH 320 g/ha, evaluated three weeks after application
Outline: (§1)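 Foliar spray test: emulsion formulation diluted in water to a set application rate, sprayed onto 14-day-old plants raised in diluvial soil at 25° C to 30° C under glass. Both herbicidal effect and crop effect rated visually three weeks later.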

oval-leafed pondweed = test: Test Example 1: herbicidal activity, application before weed generation under submerged conditions (Table 16, symbol C); type: in vivo, oval-leafed pondweed (Monochoria vaginalis)
Outline: (§2)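 Submerged Wagner pots (alluvial soil, 4 cm water) sown with weed seeds and planted with 2.5-leaf rice seedlings; emulsifiable concentrate diluted in water applied to water surface on sowing day. Held in greenhouse at 25-30 °C; injury scored 0-5 by herbicidal rate after three weeks.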

chickweed [2] = test: Test Example 5: herbicidal effect by foliage application, plastic box (Table 20, symbol P); type: in vivo, common chickweed (Stellaria media); details: foliage application, AAH 320 g/ha, evaluated three weeks after application
Outline: as §1

windgrass [3] = test: Test Example 5: herbicidal effect by foliage application, plastic box (Table 20, symbol L); type: in vivo, windgrass (Apera spica-venti); details: foliage application, AAH 320 g/ha, evaluated three weeks after application
Outline: as §1

southern crabgrass [4] = test: Test Example 4: herbicidal effect by soil treatment (Table 19, symbol F); type: in vivo, southern crabgrass (Digitaria ciliaris); details: amount of applied herbicide 320 g/ha
Outline: (§3)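 Herbicidal effect was rated 3 weeks after treatment, using the scoring criteria of an earlier test. The compound, formulated as an emulsion and diluted in water to a set herbicide amount, had been sprayed uniformly on soil over freshly sown seeds. Growth took place in a greenhouse at 25° C. to 30° C.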

Italian ryegrass [5] = test: Test Example 4: herbicidal effect by soil treatment (Table 19, symbol K); type: in vivo, Italian ryegrass (Lolium multiflorum); details: amount of applied herbicide 320 g/ha
Outline: as §3

wild oat [6] = test: Test Example 4: herbicidal effect by soil treatment (Table 19, symbol I); type: in vivo, wild oat (Avena fatua); details: amount of applied herbicide 320 g/ha
Outline: as §3

barnyard grass [7] = test: Test Example 3: herbicidal effect by foliage application, Wagner pot (Table 18, symbol H); type: in vivo, barnyard grass (Echinochloa crus-galli); details: amount of applied herbicide 320 g/ha
Outline: (§4)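 Plants were sown in alluvial soil held under 0.1–0.5 cm standing water and grown 14 days in a greenhouse at 25–30 °C. An emulsifiable formulation, water-diluted to the set dose, was then sprayed onto the foliage, and effects were scored three weeks later using previously defined criteria.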

wild oat [8] = test: Test Example 5: herbicidal effect by foliage application, plastic box (Table 20, symbol I); type: in vivo, wild oat (Avena fatua); details: foliage application, AAH 320 g/ha, evaluated three weeks after application
Outline: as §1

velvetleaf [9] = test: Test Example 5: herbicidal effect by foliage application, plastic box (Table 20, symbol M); type: in vivo, velvetleaf (Abutilon theophrasti); details: foliage application, AAH 320 g/ha, evaluated three weeks after application
Outline: as §1

blackgrass [10] = test: Test Example 4: herbicidal effect by soil treatment (Table 19, symbol J); type: in vivo, blackgrass (Alopecurus myosuroides); details: amount of applied herbicide 320 g/ha
Outline: as §3

velvetleaf [11] = test: Test Example 4: herbicidal effect by soil treatment (Table 19, symbol M); type: in vivo, velvetleaf (Abutilon theophrasti); details: amount of applied herbicide 320 g/ha
Outline: as §3

chickweed [12] = test: Test Example 4: herbicidal effect by soil treatment (Table 19, symbol P); type: in vivo, common chickweed (Stellaria media); details: amount of applied herbicide 320 g/ha
Outline: as §3

lambsquarters [13] = test: Test Example 4: herbicidal effect by soil treatment (Table 19, symbol O); type: in vivo, lambsquarters (Chenopodium album); details: amount of applied herbicide 320 g/ha
Outline: as §3

persian speedwell [14] = test: Test Example 5: herbicidal effect by foliage application, plastic box (Table 20, symbol R); type: in vivo, Persian speedwell (Veronica persica); details: foliage application, AAH 320 g/ha, evaluated three weeks after application
Outline: as §1

barnyard grass [15] = test: Test Example 4: herbicidal effect by soil treatment (Table 19, symbol H); type: in vivo, barnyard grass (Echinochloa crus-galli); details: amount of applied herbicide 320 g/ha
Outline: as §3

Italian ryegrass [16] = test: Test Example 5: herbicidal effect by foliage application, plastic box (Table 20, symbol K); type: in vivo, Italian ryegrass (Lolium multiflorum); details: foliage application, AAH 320 g/ha, evaluated three weeks after application
Outline: as §1

lambsquarters [17] = test: Test Example 5: herbicidal effect by foliage application, plastic box (Table 20, symbol O); type: in vivo, lambsquarters (Chenopodium album); details: foliage application, AAH 320 g/ha, evaluated three weeks after application
Outline: as §1

southern crabgrass [18] = test: Test Example 5: herbicidal effect by foliage application, plastic box (Table 20, symbol F); type: in vivo, southern crabgrass (Digitaria ciliaris); details: foliage application, AAH 320 g/ha, evaluated three weeks after application
Outline: as §1

Chinese sprangletop = test: Test Example 3: herbicidal effect by foliage application, Wagner pot (Table 18, symbol D); type: in vivo, chinese sprangletop (Leptochloa chinensis); details: amount of applied herbicide 320 g/ha
Outline: as §4

rice flat sedge = test: Test Example 3: herbicidal effect by foliage application, Wagner pot (Table 18, symbol E); type: in vivo, rice flat sedge (Cyperus iria); details: amount of applied herbicide 320 g/ha
Outline: as §4

redroot pigweed [19] = test: Test Example 4: herbicidal effect by soil treatment (Table 19, symbol N); type: in vivo, redroot pigweed (Amaranthus retroflexus); details: amount of applied herbicide 320 g/ha
Outline: as §3

blackgrass [20] = test: Test Example 5: herbicidal effect by foliage application, plastic box (Table 20, symbol J); type: in vivo, blackgrass (Alopecurus myosuroides); details: foliage application, AAH 320 g/ha, evaluated three weeks after application
Outline: as §1

persian speedwell [21] = test: Test Example 4: herbicidal effect by soil treatment (Table 19, symbol R); type: in vivo, Persian speedwell (Veronica persica); details: amount of applied herbicide 320 g/ha
Outline: as §3

green foxtail [22] = test: Test Example 4: herbicidal effect by soil treatment (Table 19, symbol G); type: in vivo, green foxtail (Setaria viridis); details: amount of applied herbicide 320 g/ha
Outline: as §3

redroot pigweed [23] = test: Test Example 5: herbicidal effect by foliage application, plastic box (Table 20, symbol N); type: in vivo, redroot pigweed (Amaranthus retroflexus); details: foliage application, AAH 320 g/ha, evaluated three weeks after application
Outline: as §1

late watergrass = test: Test Example 1: herbicidal activity, application before weed generation under submerged conditions (Table 16, symbol A); type: in vivo, late watergrass (Echinochloa oryzicola)
Outline: as §2

windgrass [24] = test: Test Example 4: herbicidal effect by soil treatment (Table 19, symbol L); type: in vivo, windgrass (Apera spica-venti); details: amount of applied herbicide 320 g/ha
Outline: as §3

Japanese bulrush = test: Test Example 1: herbicidal activity, application before weed generation under submerged conditions (Table 16, symbol B); type: in vivo, Japanese bulrush (Schoenoplectus juncoides)
Outline: as §2

barnyard grass [25] = test: Test Example 5: herbicidal effect by foliage application, plastic box (Table 20, symbol H); type: in vivo, barnyard grass (Echinochloa crus-galli); details: foliage application, AAH 320 g/ha, evaluated three weeks after application
Outline: as §1

[26] = amount of applied herbicide 320 g/ha

| SMILES | G: green foxtail, herbicidal effect (criteria 0-5) (green foxtail [1]) | P: chickweed, herbicidal effect (criteria 0-5) (chickweed [2]) | L: windgrass, herbicidal effect (criteria 0-5) (windgrass [3]) | herbicidal effect on H: barnyard grass (barnyard grass [7]) | I: wild oat, herbicidal effect (criteria 0-5) (wild oat [8]) | M: velvetleaf, herbicidal effect (criteria 0-5) (velvetleaf [9]) | R: persian speedwell, herbicidal effect (criteria 0-5) (persian speedwell [14]) | K: Italian ryegrass, herbicidal effect (criteria 0-5) (Italian ryegrass [16]) | O: lambsquarters, herbicidal effect (criteria 0-5) (lambsquarters [17]) | F: southern crabgrass, herbicidal effect (criteria 0-5) (southern crabgrass [18]) | herbicidal effect on D: Chinese sprangletop (Chinese sprangletop) | herbicidal effect on E: rice flat sedge (rice flat sedge) | J: blackgrass, herbicidal effect (criteria 0-5) (blackgrass [20]) | N: redroot pigweed, herbicidal effect (criteria 0-5) (redroot pigweed [23]) | H: barnyard grass, herbicidal effect (criteria 0-5) (barnyard grass [25]) | other results |
| --- | --- | --- | --- | --- | --- | --- | --- | --- | --- | --- | --- | --- | --- | --- | --- | --- |
| CCSCc1ccc(-c2sc3ccc(F)cc3c2-c2c(O)c(C)nn(C)c2=O)cc1 [2-319] | 5 (Herbicidal rate of 90% or more (almost completely withered)) | 5 (Herbicidal rate of 90% or more (almost completely withered)) | 4 (Herbicidal rate of 70% or more and less than 90%) | 5 (Herbicidal rate of 90% or more (almost completely withered)) | 4 (Herbicidal rate of 70% or more and less than 90%) | 5 (Herbicidal rate of 90% or more (almost completely withered)) | 5 (Herbicidal rate of 90% or more (almost completely withered)) | 4 (Herbicidal rate of 70% or more and less than 90%) | 5 (Herbicidal rate of 90% or more (almost completely withered)) | 5 (Herbicidal rate of 90% or more (almost completely withered)) | 4 (Herbicidal rate of 70% or more and less than 90%) | 5 (Herbicidal rate of 90% or more (almost completely withered)) | 4 (Herbicidal rate of 70% or more and less than 90%) | 5 (Herbicidal rate of 90% or more (almost completely withered)) | 5 (Herbicidal rate of 90% or more (almost completely withered)) | Herbicidal effect on C: oval-leafed pondweed (grade 0-5) (oval-leafed pondweed; 320 g/ha applied herbicide): 3 (Herbicidal rate of 40% or more and less than 70%); herbicidal effect on F: southern crabgrass (southern crabgrass [4]): 4 (Herbicidal rate of 70% or more and less than 90%); herbicidal effect on K: Italian ryegrass (Italian ryegrass [5]): 4 (Herbicidal rate of 70% or more and less than 90%); herbicidal effect on I: wild oat (wild oat [6]): 0 (Herbicidal rate of 5% or less (almost no effect)); herbicidal effect on J: blackgrass (blackgrass [10]): 0 (Herbicidal rate of 5% or less (almost no effect)); herbicidal effect on M: velvetleaf (velvetleaf [11]): 3 (Herbicidal rate of 40% or more and less than 70%); herbicidal effect on P: chickweed (chickweed [12]): 0 (Herbicidal rate of 5% or less (almost no effect)); herbicidal effect on O: lambsquarters (lambsquarters [13]): 3 (Herbicidal rate of 40% or more and less than 70%); herbicidal effect on H: barnyard grass (barnyard grass [15]): 3 (Herbicidal rate of 40% or more and less than 70%); herbicidal effect on N: redroot pigweed (redroot pigweed [19]): 4 (Herbicidal rate of 70% or more and less than 90%); herbicidal effect on R: persian speedwell (persian speedwell [21]): 4 (Herbicidal rate of 70% or more and less than 90%); herbicidal effect on G: green foxtail (green foxtail [22]): 4 (Herbicidal rate of 70% or more and less than 90%); Herbicidal effect on A: late watergrass (grade 0-5) (late watergrass; 320 g/ha applied herbicide): 4 (Herbicidal rate of 70% or more and less than 90%); herbicidal effect on L: windgrass (windgrass [24]): 1 (Herbicidal rate of 5% or more and less than 20%); Herbicidal effect on B: Japanese bulrush (grade 0-5) (Japanese bulrush; 320 g/ha applied herbicide): 2 (Herbicidal rate of 20% or more and less than 40%) |
| COc1ccccc1-c1sc2ccc(C=O)cc2c1-c1c(O)c(C)nn(C)c1=O [2-395] | 4 (Herbicidal rate of 70% or more and less than 90%) | 5 (Herbicidal rate of 90% or more (almost completely withered)) | 0 (Herbicidal rate of 5% or less (almost no effect)) | 3 (Herbicidal rate of 40% or more and less than 70%) | 0 (Herbicidal rate of 5% or less (almost no effect)) | 5 (Herbicidal rate of 90% or more (almost completely withered)) | 4 (Herbicidal rate of 70% or more and less than 90%) | 0 (Herbicidal rate of 5% or less (almost no effect)) | 5 (Herbicidal rate of 90% or more (almost completely withered)) | 3 (Herbicidal rate of 40% or more and less than 70%) | 3 (Herbicidal rate of 40% or more and less than 70%) | 3 (Herbicidal rate of 40% or more and less than 70%) | 0 (Herbicidal rate of 5% or less (almost no effect)) | 5 (Herbicidal rate of 90% or more (almost completely withered)) | 3 (Herbicidal rate of 40% or more and less than 70%) | Herbicidal effect, C: oval-leafed pondweed (oval-leafed pondweed; [26]): 0 (Herbicidal rate of 5% or less (almost no effect)); herbicidal effect, F: southern crabgrass (southern crabgrass [4]): 0 (Herbicidal rate of 5% or less (almost no effect)); herbicidal effect, K: Italian ryegrass (Italian ryegrass [5]): 0 (Herbicidal rate of 5% or less (almost no effect)); herbicidal effect, I: wild oat (wild oat [6]): 0 (Herbicidal rate of 5% or less (almost no effect)); herbicidal effect, J: blackgrass (blackgrass [10]): 0 (Herbicidal rate of 5% or less (almost no effect)); herbicidal effect, M: velvetleaf (velvetleaf [11]): 0 (Herbicidal rate of 5% or less (almost no effect)); herbicidal effect, P: chickweed (chickweed [12]): 0 (Herbicidal rate of 5% or less (almost no effect)); herbicidal effect, O: lambsquarters (lambsquarters [13]): 3 (Herbicidal rate of 40% or more and less than 70%); herbicidal effect, H: barnyard grass (barnyard grass [15]): 0 (Herbicidal rate of 5% or less (almost no effect)); herbicidal effect, N: redroot pigweed (redroot pigweed [19]): 3 (Herbicidal rate of 40% or more and less than 70%); herbicidal effect, R: persian speedwell (persian speedwell [21]): 0 (Herbicidal rate of 5% or less (almost no effect)); herbicidal effect, G: green foxtail (green foxtail [22]): 0 (Herbicidal rate of 5% or less (almost no effect)); Herbicidal effect, A: late watergrass (late watergrass; [26]): 0 (Herbicidal rate of 5% or less (almost no effect)); herbicidal effect, L: windgrass (windgrass [24]): 0 (Herbicidal rate of 5% or less (almost no effect)); Herbicidal effect, B: Japanese bulrush (Japanese bulrush; [26]): 2 (Herbicidal rate of 20% or more and less than 40%) |

— patent US20230085307A1, “PYRIDAZINONE COMPOUND AND HERBICIDE” (NISSAN CHEMICAL CORPORATION, priority 2019, published 2023)
